Test results as given in patent US20230233483A1, “COMPOUND AND METHOD FOR THE TREATMENT OF CORONAVIRUSES” (Apteeus, priority 2020, published 2023).

Tested on: SARS-CoV-2 of lineage B1 containing the D614G mutation; SARS-CoV-2 of lineage B1.1.7
Assay type: cell-based

SMILES: CC(C)(C)CC(C)(C)c1ccc(O)c(Cc2ccc(Cl)cc2Cl)c1 [clofoctol, 2-(2,4-Dichlorobenzyl)-4-(1,1,3,3-tetramethylbutyl)phenol]
- Genomic replication of variants of SARS-CoV-2 (RT-qPCR): inhibits the genomic replication of variants of SARS-CoV-2
